Common to all, as to experiment: biochemical
Design in all cases: Thermo Fisher SelectScreen kinase panel: Z'-LYTE and Adapta activity, LanthaScreen binding

One assay deals with TXK (Homo sapiens, UniProt P42681). The procedure: (§1) 5 88 GNE684 was tested in Thermo Fisher Scientific SelectScreen assay (Madison, WI) 89 against 221 representative kinases at a concentration of 10 µM, which is 476-fold greater than the Ki app 90 for GNE684 against human RIP1 in the RIP1 enzyme 91 assay. The kinase assays were carried out using Z'-LYTE and Adapta activity and 92 LanthaScreen binding assays (Thermo Fisher Scientific, Madison WI) following 93 protocols developed and performed by Thermo Fisher Scientific 94 (https://www.thermofisher.com/us/en/home/products-and-services/services/custom-95 services/screening-and-profiling-services/selectscreen-profiling-service/selectscreen-96 kinase-profiling-service.html). 97 GNE684 was also tested against 468 kinases in the KINOMEscan scanMAX kinase 98 binding assay panel at a concentration of 10 µM following protocols developed and 99 performed by DiscoverX (http://www.discoverx.com/kinase_profiling).

The target in the next assay is CAMKK1 (Homo sapiens, UniProt Q8N5S9). The procedure:
as §1

For a further assay, the target named is T1, Ros (Homo sapiens, UniProt P08922).
T1 construct: gene ROS1
The procedure:
as §1

In the next assay the target is T2, p38-beta (Homo sapiens, UniProt Q15759).
T2 construct: gene MAPK11
The procedure: as §1

Another assay has as its target TNK2 (Homo sapiens, UniProt Q07912). The procedure: as §1
For the next assay, the target named is SGK2 (Homo sapiens, UniProt Q9HBY8). The procedure: as §1
Another assay deals with DMPK (Homo sapiens, UniProt Q09013). The procedure:
as §1

A further assay has as its target ERBB2 (Homo sapiens, UniProt P04626). The procedure:
as §1

Another assay has as its target TEC (Homo sapiens, UniProt P42680). The procedure: as §1
Another assay deals with PAK6 (Homo sapiens, UniProt Q9NQU5). The procedure:
as §1

A further assay concerns the target T3, GSK3_beta (Homo sapiens, UniProt P49841).
T3 construct: gene GSK3B
The procedure:
as §1

The target in the next assay is BRAF (Homo sapiens, UniProt P15056). The procedure:
as §1

The next assay concerns the target T4, PKD1 (Homo sapiens, UniProt Q15139).
T4 construct: gene PRKD1
The procedure:
as §1

The next assay addresses T5, TAO2 (Homo sapiens, UniProt Q9UL54).
T5 construct: gene TAOK2
The procedure: as §1

The target of a further assay is TTK (Homo sapiens, UniProt P33981). The procedure:
as §1

The target in the next assay is EPHB3 (Homo sapiens, UniProt P54753). The procedure: as §1
The target of a further assay is LRRK2 (Homo sapiens, UniProt Q5S007). The procedure:
as §1

A further assay deals with T6, MYLK3(caMLCK) (Homo sapiens, UniProt Q32MK0).
T6 construct: cardiac MLCK
The procedure:
as §1

For a further assay, the target named is AKT2 (Homo sapiens, UniProt P31751). The procedure:
as §1

In the next assay the target is MAPKAPK2 (Homo sapiens, UniProt P49137). The procedure: as §1
The target of the next assay is T7, CamKII_alpha (Homo sapiens, UniProt Q9UQM7).
T7 construct: gene CAMK2A
The procedure:
as §1

A further assay concerns the target WEE1 (Homo sapiens, UniProt P30291). The procedure: as §1
The next assay deals with LTK (Homo sapiens, UniProt P29376). The procedure: as §1

Sequence of DMPK (Q09013 whole entry): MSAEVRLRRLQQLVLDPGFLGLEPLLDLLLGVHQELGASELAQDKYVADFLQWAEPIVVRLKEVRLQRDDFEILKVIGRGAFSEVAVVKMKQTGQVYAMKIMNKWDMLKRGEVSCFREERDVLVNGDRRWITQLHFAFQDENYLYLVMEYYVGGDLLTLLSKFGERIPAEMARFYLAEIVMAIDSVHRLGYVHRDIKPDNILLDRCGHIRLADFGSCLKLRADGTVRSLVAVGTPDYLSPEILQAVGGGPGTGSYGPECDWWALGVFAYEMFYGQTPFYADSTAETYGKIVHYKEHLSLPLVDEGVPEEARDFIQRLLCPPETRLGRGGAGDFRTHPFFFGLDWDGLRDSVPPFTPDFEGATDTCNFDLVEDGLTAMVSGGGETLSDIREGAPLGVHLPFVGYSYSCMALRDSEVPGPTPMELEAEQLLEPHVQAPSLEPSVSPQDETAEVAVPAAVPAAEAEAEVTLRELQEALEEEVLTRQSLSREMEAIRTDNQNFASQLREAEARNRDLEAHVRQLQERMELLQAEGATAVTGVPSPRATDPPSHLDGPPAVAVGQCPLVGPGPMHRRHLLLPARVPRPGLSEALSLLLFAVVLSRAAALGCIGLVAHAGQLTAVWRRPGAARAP
T6 sequence (Q32MK0 whole entry): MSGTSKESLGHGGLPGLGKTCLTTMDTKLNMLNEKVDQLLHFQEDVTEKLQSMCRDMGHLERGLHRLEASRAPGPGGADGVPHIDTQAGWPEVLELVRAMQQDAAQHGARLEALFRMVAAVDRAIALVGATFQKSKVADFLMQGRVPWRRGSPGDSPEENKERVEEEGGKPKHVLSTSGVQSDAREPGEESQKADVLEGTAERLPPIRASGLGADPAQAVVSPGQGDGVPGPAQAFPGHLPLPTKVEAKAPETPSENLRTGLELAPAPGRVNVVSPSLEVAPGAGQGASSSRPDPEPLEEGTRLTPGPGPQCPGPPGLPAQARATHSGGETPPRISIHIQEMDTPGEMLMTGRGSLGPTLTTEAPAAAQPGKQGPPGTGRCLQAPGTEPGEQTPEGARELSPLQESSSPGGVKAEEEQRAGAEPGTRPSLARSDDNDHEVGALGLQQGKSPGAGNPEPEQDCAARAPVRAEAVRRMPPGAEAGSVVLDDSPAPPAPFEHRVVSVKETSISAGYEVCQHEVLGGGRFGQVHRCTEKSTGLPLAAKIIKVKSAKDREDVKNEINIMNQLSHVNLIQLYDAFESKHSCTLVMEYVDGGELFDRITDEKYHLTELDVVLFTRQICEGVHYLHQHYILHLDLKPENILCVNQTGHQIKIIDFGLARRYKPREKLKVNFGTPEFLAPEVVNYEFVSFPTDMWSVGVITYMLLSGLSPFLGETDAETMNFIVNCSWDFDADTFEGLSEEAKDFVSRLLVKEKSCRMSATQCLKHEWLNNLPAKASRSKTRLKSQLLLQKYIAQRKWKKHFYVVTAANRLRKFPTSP
Sequence of TNK2 (Q07912 whole entry): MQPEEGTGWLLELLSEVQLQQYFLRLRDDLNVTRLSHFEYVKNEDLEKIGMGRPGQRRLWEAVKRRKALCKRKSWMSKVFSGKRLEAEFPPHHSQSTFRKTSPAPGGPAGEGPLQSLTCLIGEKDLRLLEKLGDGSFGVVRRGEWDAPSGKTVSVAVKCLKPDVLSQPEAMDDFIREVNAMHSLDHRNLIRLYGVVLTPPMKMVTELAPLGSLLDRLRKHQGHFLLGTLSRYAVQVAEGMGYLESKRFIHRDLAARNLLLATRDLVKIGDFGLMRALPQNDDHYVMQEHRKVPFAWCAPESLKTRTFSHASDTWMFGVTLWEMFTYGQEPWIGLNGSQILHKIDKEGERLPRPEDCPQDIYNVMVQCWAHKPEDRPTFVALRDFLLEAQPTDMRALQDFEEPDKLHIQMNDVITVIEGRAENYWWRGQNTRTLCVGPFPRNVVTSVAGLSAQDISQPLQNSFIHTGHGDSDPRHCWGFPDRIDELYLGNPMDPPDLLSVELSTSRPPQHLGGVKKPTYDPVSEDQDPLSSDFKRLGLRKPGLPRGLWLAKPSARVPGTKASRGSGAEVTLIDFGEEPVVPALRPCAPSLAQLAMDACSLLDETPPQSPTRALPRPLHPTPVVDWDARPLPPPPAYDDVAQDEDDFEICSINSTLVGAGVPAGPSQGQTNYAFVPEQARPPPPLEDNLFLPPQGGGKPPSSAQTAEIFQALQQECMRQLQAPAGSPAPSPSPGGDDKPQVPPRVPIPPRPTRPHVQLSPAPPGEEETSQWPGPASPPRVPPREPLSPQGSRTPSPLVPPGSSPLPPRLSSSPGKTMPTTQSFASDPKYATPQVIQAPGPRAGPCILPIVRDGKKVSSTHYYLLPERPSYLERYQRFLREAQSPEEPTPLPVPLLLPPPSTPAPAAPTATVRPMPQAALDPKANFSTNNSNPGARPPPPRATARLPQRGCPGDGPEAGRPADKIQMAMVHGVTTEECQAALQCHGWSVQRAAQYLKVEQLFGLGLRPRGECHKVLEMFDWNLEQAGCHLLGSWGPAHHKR
T1 sequence (P08922 whole entry): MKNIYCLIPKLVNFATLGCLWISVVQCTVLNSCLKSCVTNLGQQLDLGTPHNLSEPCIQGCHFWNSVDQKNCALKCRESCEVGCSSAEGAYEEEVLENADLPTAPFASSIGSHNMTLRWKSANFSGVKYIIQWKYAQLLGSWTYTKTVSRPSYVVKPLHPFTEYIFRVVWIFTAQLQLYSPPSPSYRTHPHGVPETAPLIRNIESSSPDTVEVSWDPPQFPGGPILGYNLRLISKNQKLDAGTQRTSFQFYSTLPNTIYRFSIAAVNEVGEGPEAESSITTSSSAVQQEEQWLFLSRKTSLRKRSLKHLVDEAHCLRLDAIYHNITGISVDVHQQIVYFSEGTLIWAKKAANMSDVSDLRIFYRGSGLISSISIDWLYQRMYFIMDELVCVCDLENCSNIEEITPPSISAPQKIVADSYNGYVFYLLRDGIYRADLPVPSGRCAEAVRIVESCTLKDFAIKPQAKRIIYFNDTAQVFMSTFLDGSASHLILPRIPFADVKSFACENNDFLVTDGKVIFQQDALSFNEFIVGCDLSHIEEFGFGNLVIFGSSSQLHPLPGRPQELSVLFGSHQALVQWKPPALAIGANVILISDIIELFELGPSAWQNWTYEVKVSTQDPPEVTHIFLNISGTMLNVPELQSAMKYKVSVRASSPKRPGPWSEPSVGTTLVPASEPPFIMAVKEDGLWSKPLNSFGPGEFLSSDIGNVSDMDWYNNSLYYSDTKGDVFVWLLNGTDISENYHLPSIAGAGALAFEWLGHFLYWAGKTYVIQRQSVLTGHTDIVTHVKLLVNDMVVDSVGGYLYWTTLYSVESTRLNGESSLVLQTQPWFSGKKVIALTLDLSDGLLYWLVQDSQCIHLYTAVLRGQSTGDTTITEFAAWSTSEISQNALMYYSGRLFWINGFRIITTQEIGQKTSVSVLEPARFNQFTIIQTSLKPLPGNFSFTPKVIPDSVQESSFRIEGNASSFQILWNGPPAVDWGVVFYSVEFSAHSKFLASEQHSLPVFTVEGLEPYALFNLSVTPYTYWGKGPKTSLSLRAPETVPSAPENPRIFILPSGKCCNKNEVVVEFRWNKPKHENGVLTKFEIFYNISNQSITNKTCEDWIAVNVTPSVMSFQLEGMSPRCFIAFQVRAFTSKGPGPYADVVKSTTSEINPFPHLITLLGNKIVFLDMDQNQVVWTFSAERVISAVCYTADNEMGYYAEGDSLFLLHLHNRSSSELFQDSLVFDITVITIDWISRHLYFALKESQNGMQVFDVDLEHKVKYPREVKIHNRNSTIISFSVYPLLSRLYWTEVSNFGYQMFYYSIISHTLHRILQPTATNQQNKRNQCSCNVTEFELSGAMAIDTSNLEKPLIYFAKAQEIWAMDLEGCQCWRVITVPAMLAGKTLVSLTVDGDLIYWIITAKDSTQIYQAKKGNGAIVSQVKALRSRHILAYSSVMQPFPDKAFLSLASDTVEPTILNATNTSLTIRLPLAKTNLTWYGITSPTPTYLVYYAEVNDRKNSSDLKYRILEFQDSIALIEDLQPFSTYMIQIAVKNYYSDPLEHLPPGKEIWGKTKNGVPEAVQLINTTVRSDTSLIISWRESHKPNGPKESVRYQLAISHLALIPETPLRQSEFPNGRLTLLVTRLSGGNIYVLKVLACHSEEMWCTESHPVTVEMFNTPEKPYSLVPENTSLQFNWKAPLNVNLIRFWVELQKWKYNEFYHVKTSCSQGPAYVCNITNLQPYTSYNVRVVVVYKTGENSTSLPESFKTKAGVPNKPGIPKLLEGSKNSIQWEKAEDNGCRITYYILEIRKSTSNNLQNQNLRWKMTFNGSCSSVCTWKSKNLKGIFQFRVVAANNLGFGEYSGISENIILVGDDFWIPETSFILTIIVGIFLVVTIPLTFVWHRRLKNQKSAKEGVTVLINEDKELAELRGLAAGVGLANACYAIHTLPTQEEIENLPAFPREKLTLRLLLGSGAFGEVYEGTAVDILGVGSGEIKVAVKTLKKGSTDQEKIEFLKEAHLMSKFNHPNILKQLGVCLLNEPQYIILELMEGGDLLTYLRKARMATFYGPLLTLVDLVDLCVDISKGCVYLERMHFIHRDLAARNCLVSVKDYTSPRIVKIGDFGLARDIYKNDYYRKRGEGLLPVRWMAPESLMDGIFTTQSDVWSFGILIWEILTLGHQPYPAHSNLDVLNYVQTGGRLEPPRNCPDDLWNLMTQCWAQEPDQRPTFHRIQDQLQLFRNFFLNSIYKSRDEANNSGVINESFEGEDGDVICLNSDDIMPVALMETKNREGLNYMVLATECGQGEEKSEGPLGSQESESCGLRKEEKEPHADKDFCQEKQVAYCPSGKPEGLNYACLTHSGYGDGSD

As to `COc1cc2c(cn1)N(C)C(=O)[C@@H](NC(=O)c1nc3n(n1)[C@H](c1ccccc1)CC3)CC2` [GNE684, (S)-N-((S)-7-methoxy-1-methyl-2-oxo-2,3,4,5-tetrahydro-1H-pyrido[3,4-b]azepin-3-yl)-5-phenyl-6,7-dihydro-5H-pyrrolo[1,2-b][1,2,4]triazole-2-carboxamide], the inhibition (in general, the drop in the measured response relative to a control, in per cent) at 10 µM at TXK is 5.5%; on CAMKK1, -7.5%; on Ros it was 3%; on p38-beta, 4.5%; on TNK2, 2.5%; on SGK2, 5.5%. In addition, the inhibition at 10 µM at DMPK was -3%; at ERBB2, -5.5%; on TEC, -1%; on PAK6, 4.5%; at GSK3_beta, 5%; at BRAF, 6.5%. For the same molecule, the inhibition at 10 µM on PKD1 was 3%; at TAO2, 1%; at TTK, -2.5%; on EPHB3, 3.5%; at LRRK2, -19.5%; at MYLK3(caMLCK) it was -11%. Also, the inhibition at 10 µM is 4.5% on AKT2; 4.5% on MAPKAPK2; 6.5% on CamKII_alpha; 0.5% on WEE1; 7.5% on LTK.

The record behind these values is publication PMC7206119, “RIP1 inhibition blocks inflammatory diseases but not tumor growth or metastases” (Cell Death and Differentiation, 2019).
